Measured values reported in patent US6737383B1, “Herbicidal oxadiazolidines” (priority 1999, dated 2004).

Tests used:
bedstraw = test: Test B pre/postemergence bedstraw; type: in vivo, Galium aparine; settings: for Bedstraw plant response rating (0 to 10 scale): 0 is no effect
In short: (§1)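 Response is a visual 0-to-10 score relative to untreated plants, where 0 means no effect and 10 means complete control, taken twelve to sixteen days after application. Treatments went onto soil at planting and onto foliage of 1- to 4-leaf plants, using a surfactant-containing non-phytotoxic solvent.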

pigweed = test: Test B pre/postemergence pigweed; type: in vivo, Amaranthus retroflexus; settings: for Redroot pigweed plant response rating (0 to 10 scale): 0 is no effect
In short: as §1

rice = test: Test B flood test rice; type: in vivo, Oryza sativa
In short: (§2)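 Flood test on plants grown to the 2-leaf stage; treated plants kept in greenhouse twelve to sixteen days, then visually rated against controls on a 0 (no effect) to 10 (complete control) scale.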

bamyardgrass = test: Test B flood test barnyardgrass; type: in vivo, Echinochloa crus-galli
In short: as §2

[1] = Preemergence, Rate 62 g/ha, scale of 0 to 10 where 0 is no effect and 10 is complete control
[2] = Preemergence, Rate 125 g/ha, 10 is complete control
[3] = Preemergence, Rate 250 g/ha, scale 0 to 10, 0 is no effect, 10 is complete control
[4] = Preemergence, Rate 500 g/ha, scale 0 to 10 (0 no effect, 10 complete control)
[5] = Rate 62 g/ha, Postemergence, scale of 0 to 10 where 0 is no effect and 10 is complete control
[6] = Rate 125 g/ha, Postemergence, scale 0 to 10
[7] = Rate 500 g/ha, Postemergence, scale 0 to 10
[8] = Rate 62 g/ha, headed Pre-emergence (flood test species), scale 0 to 10 (0 no effect, 10 complete control)
[9] = Rate 125 g/ha, Pre-emergence, flood test species, scale 0 to 10 where 0 is no effect and 10 is complete control
[10] = Rate 250 g/ha, Pre-emergence, flood-test species, scale 0 to 10, 0 is no effect, 10 is complete control
[11] = Rate 500 g/ha, headed Pre-emergence (flood test species), scale 0 to 10 (0 no effect, 10 complete control)
[12] = Postemergence, Rate 125 g/ha, scale of 0 to 10 where 0 is no effect and 10 is complete control
[13] = Preemergence, Rate 62 g/ha, scale 0 to 10 (0 no effect, 10 complete control)
[14] = Rate 250 g/ha, Postemergence, scale 0 to 10, 0 is no effect, 10 is complete control
[15] = Rate 500 g/ha, Postemergence, scale 0 to 10, 0 no effect, 10 complete control
[16] = Rate 250 g/ha, headed Pre-emergence (flood test species), scale 0 to 10 (0 no effect, 10 complete control)
[17] = Postemergence, Rate 250 g/ha, scale 0 to 10
[18] = Rate 62 g/ha, Postemergence, scale 0 to 10, 0 no effect, 10 complete control
[19] = Rate 125 g/ha, Postemergence, scale 0 to 10, 0 is no effect, 10 is complete control
[20] = Postemergence block (flood test species), Rate 250 g/ha, scale 0 to 10
[21] = Postemergence section (flood test species), Rate 500 g/ha, scale of 0 to 10 where 0 is no effect and 10 is complete control
[22] = Rate 62 g/ha, Postemergence (flood test), scale 0 to 10, 0 no effect, 10 complete control
[23] = Rate 125 g/ha, Postemergence section (flood test species), scale 0 to 10, 0 is no effect, 10 is complete control
[24] = Postemergence, Rate 62 g/ha, scale 0 to 10, 0 is no effect, 10 is complete control
[25] = Postemergence, Rate 250 g/ha, scale 0 to 10, 0 no effect, 10 complete control
[26] = Preemergence, Rate 125 g/ha, scale 0 to 10 (0 no effect, 10 complete control)
[27] = Preemergence, Rate 250 g/ha, scale of 0 to 10 where 0 is no effect and 10 is complete control
[28] = Preemergence, Rate 500 g/ha, scale 0 (no effect) to 10 (complete control)
[29] = Rate 125 g/ha, Postemergence, scale 0 to 10, 0 no effect, 10 complete control
[30] = Rate 1000 g/ha, Preemergence, scale 0 to 10 (0 no effect, 10 complete control)
[31] = Rate 2000 g/ha, Preemergence, scale 0 to 10
[32] = Rate 1000 g/ha, Pre-emergence (as headed), scale 0 to 10

Compound	Bedstraw plant response rating (bedstraw; [1])	Bedstraw plant response rating (0 to 10 scale) (bedstraw; [2])	Bedstraw plant response rating (bedstraw; [3])	Bedstraw plant response rating (bedstraw; [4])	Bedstraw plant response rating (bedstraw; [5])	Bedstraw plant response rating (bedstraw; [6])	Plant response rating (0 to 10; 0 is no effect, 10 is complete control), Bedstraw (bedstraw; Rate 250 g/ha, Postemergence)	Bedstraw plant response rating (bedstraw; [7])	Redroot pigweed plant response rating (pigweed; [1])	Redroot pigweed plant response rating (0 to 10 scale) (pigweed; [2])	Redroot pigweed plant response rating (pigweed; [3])	Redroot pigweed plant response rating (pigweed; [4])	Redroot pigweed plant response rating (pigweed; [5])	Redroot pigweed plant response rating (pigweed; [7])	Rice plant response rating (rice; [8])	Rice plant response rating (rice; [9])	Plant response rating, Rice (rice; [11])	Barnyardgrass plant response rating (bamyardgrass; [8])	Barnyardgrass plant response rating (bamyardgrass; [9])	Plant response rating, Barnyardgrass (bamyardgrass; [11])	further results
COc1nc(OC)nc(N(C(=O)n2oc(=O)n(-c3c(C)cccc3C)c2=O)C(C)C)n1 [Compound 180]	0	0	0	0	0	0	0	0	0	0	0	0	0	0	0	0	0	0	0	0	Redroot pigweed plant response rating (pigweed; [6]): 0; Plant response rating (0 to 10; 0 is no effect, 10 is complete control), Redroot pigweed (pigweed; Rate 250 g/ha, Postemergence): 0; Rice plant response rating (rice; [10]): 0; Barnyardgrass plant response rating (bamyardgrass; [10]): 0
CC(C)N(C(=O)n1oc(=O)n(C(C)(C)C)c1=O)c1ccccc1 [Compound 129]	–	0	0	0	0	–	–	–	–	2	2	7	0	3	0	0	6	7	3	9	Bedstraw plant response rating (bedstraw; [12]): 0; Bedstraw plant response rating (bedstraw; [13]): 0; Plant response rating, Bedstraw (bedstraw; [14]): 3; Bedstraw plant response rating (bedstraw; [15]): 3; Redroot pigweed plant response rating (pigweed; [12]): 0; Redroot pigweed plant response rating (pigweed; [13]): 0; Plant response rating, Redroot pigweed (pigweed; [14]): 2; Rice plant response rating (rice; [16]): 8; Barnyardgrass plant response rating (bamyardgrass; [16]): 9
CC(C)N(C(=O)n1oc(=O)n(CCC#N)c1=O)c1ccccc1 [Compound 436]	–	–	–	–	–	–	–	–	–	–	0	–	–	–	–	–	–	–	–	–	Bedstraw plant response rating (bedstraw; [17]): 0; Bedstraw plant response rating (bedstraw; [18]): 0; Bedstraw plant response rating (bedstraw; [19]): 0; Redroot pigweed plant response rating (pigweed; [17]): 0; Redroot pigweed plant response rating (pigweed; Postemergence, Rate 500 g/ha, scale of 0 to 10 where 0 is no effect and 10 is complete control): 7; Plant response rating, Redroot pigweed (pigweed; [13]): 0; Plant response rating, Redroot pigweed (pigweed; Preemergence, Rate 125 g/ha, scale of 0 to 10 where 0 is no effect and 10 is complete control): 0; Redroot pigweed plant response rating (pigweed; Preemergence, Rate 500 g/ha, scale 0 to 10, 0 is no effect, 10 is complete control): 10; Redroot pigweed plant response rating (pigweed; [18]): 0; Redroot pigweed plant response rating (pigweed; [19]): 0; Rice plant response rating (rice; [20]): 0; Rice plant response rating (rice; [21]): 0; Rice plant response rating (rice; [22]): 0; Rice plant response rating (rice; [23]): 0; Barnyardgrass plant response rating (bamyardgrass; [20]): 0; Barnyardgrass plant response rating (bamyardgrass; [21]): 0; Barnyardgrass plant response rating (bamyardgrass; [22]): 0; Barnyardgrass plant response rating (bamyardgrass; [23]): 0
Cc1cccc(C)c1-n1c(=O)on(C(=O)N(Cc2ccccc2)C(C)C)c1=O [Compound 69]	–	–	–	–	–	–	–	–	–	–	–	–	–	–	0	0	0	0	0	0	Bedstraw plant response rating (bedstraw; [24]): 0; Bedstraw plant response rating (bedstraw; [25]): 5; Bedstraw plant response rating (bedstraw; [13]): 0; Plant response rating, Bedstraw (bedstraw; [26]): 0; Plant response rating, Bedstraw (bedstraw; [27]): 0; Bedstraw plant response rating (bedstraw; [28]): 0; Bedstraw plant response rating (bedstraw; [29]): 4; Bedstraw plant response rating (bedstraw; [15]): 6; Redroot pigweed plant response rating (pigweed; [24]): 0; Redroot pigweed plant response rating (pigweed; [25]): 0; Redroot pigweed plant response rating (pigweed; [13]): 0; Plant response rating, Redroot pigweed (pigweed; [26]): 0; Plant response rating, Redroot pigweed (pigweed; [27]): 0; Redroot pigweed plant response rating (pigweed; [28]): 0; Redroot pigweed plant response rating (pigweed; [29]): 0; Redroot pigweed plant response rating (pigweed; [15]): 0; Rice plant response rating (rice; [16]): 0; Barnyardgrass plant response rating (bamyardgrass; [16]): 0
CCN(C(=O)n1oc(=O)n(N(C)c2ccccc2)c1=O)C1CCCCC1 [Compound 183]	0	0	0	7	0	0	7	3	0	0	0	0	0	0	0	0	0	0	0	0	Plant response rating, Bedstraw (bedstraw; [30]): 7; Bedstraw plant response rating (bedstraw; [31]): 10; Redroot pigweed plant response rating (pigweed; Postemergence, Rate 1000 g/ha, scale 0 to 10 (0 no effect, 10 complete control)): 0; Redroot pigweed plant response rating (pigweed; [6]): 0; Plant response rating (0 to 10; 0 is no effect, 10 is complete control), Redroot pigweed (pigweed; Rate 250 g/ha, Postemergence): 0; Plant response rating, Redroot pigweed (pigweed; [30]): 0; Redroot pigweed plant response rating (pigweed; Rate 2000 g/ha, Postemergence, scale 0 to 10): 0; Redroot pigweed plant response rating (pigweed; [31]): 0; Rice plant response rating (rice; [10]): 0; Rice plant response rating (rice; [32]): 0; Rice plant response rating (rice; Rate 2000 g/ha, Pre-emergence (as headed), scale 0 to 10): 0; Barnyardgrass plant response rating (bamyardgrass; [10]): 0; Barnyardgrass plant response rating (bamyardgrass; [32]): 0; Barnyardgrass plant response rating (bamyardgrass; Rate 2000 g/ha, Pre-emergence (as headed), scale 0 to 10, 0 no effect, 10 complete control): 0
CCN(C(=O)n1oc(=O)n(C(C)C)c1=O)c1nncs1 [Compound 190]	0	–	0	4	0	0	0	0	0	0	0	0	0	0	0	0	0	0	0	0	Redroot pigweed plant response rating (pigweed; [6]): 0; Plant response rating (0 to 10; 0 is no effect, 10 is complete control), Redroot pigweed (pigweed; Rate 250 g/ha, Postemergence): 0; Rice plant response rating (rice; [10]): 0; Barnyardgrass plant response rating (bamyardgrass; [10]): 0
